Data on two molecules can be found in patent US10881656B2, “HIF inhibitors and use thereof” (The General Hospital Corporation, priority 2008, dated 2021).

The structures appear in SMILES notation.

Assay [1] addresses T1, IRP2 binding to Ferritin-L IRE (Homo sapiens, UniProt P48200).
T1 construct: when expressed in endogenous levels; endogenous in cells; host or cells: 786-O
As to the kind of experiment: Electrophoretic mobility shift assay, Ferritin L IRE probe. The following applies: 786-O lysates, EMSA. How it is done: EMSAs were performed as described previously (Fillebeen et al., 2003). Briefly, 50 μg lysate from 786-O cells treated with medium only, DMSO, or compounds were incubated with 25,000 cpm wild-type or mutant radiolabeled HIF-2a IRE probe for 20 minutes at room temperature before loading onto non-denaturing acrylamide gels. Supershifts were performed identically, save that 0.2 μg control, IRP1 or IRP2 antibodies were also added. Total protein content was estimated by Bradford Assay (BioRad, 500-0006), and even loading for all experiments was confirmed by Western blot for B-Actin.
Inventors discovered that compound 76 increased the residual amount of IRP1 bound to the HIF-2a IRE in hypoxia, although not to the same extent as that observed in normoxic cells. […] Lastly, to further investigate the involvement of IRP2 in HIF-2a IRE, the inventors compared side by side IRP2 binding to HIF-2a and Ferritin-L IRE in 786-O cells, in conditions of normoxia or hypoxia and after treatment with compound 76 or DFO (FIG. 7E). While IRP2 binding was clearly detected on Ferritin IRE, the inventors were not able to detect measurable IRP2 binding on HIF-2a IRE.
For orientation: Mobility shift assays separate free from complexed probe on a gel.

The test system of assay [2] is 7SV (SV40-luciferase) cells. As to the kind of experiment: SV40-luciferase control reporter assay in 786-O derived 7SV cells. As to conditions: 48 hours. It counts as cell-based, human. How it is done:
The screen for small molecule inhibitors was performed in the Institute for Chemical and Cellular biology, Harvard Medical School. 7SV or 7H4 cells were plated onto 384-well plates. The next day compounds were added robotically to the medium, to a final concentration of approximately 10 μM. 24 hours later, media was aspirated and Passive Lysis Buffer (Promega) and Luciferase Assay Reagent II (Promega) were added. Luciferase activity was measured with an Analyst plate reader (LJL Biosystems). All experiments were performed in duplicate and the identity of lead compounds was confirmed by mass spectroscopy
Luciferase assays were performed using the Promega's Dual-luciferase Assay Reporter System (Promega, E1910) according to the manufacturer's instructions. Counts obtained from transient transfections were normalized for co-transfected Renilla luciferase. Stable clones were normalized to medium only treated wells.
Functionally validated HRE and control SV40 luciferase reporter constructs were stably introduced into VHL-deficient 786-O cells to generate 7H4 and 7SV lines, respectively (see FIG. 8A). […]
To validate the connectivity map-derived prediction that PGJ2 is involved in HIF signaling, the inventors treated HRE-luciferase expressing 786-O cells (7H4) and SV40-luciferase expressing control cells (7SV) with increasing doses of PGJ2. […] Luciferase activity was measured at 48 hours.
(In general: In a reporter assay the amount or activity of a reporter protein is the signal.)

The test system of a further assay is HIF-2a. As to the kind of experiment: Western blot for HIF-2a protein expression. The following applies: A498 and UMRC2 cells. It counts as cell-based, human.
For a further assay, the system named is IRP2. As to the kind of experiment: IRP2 expression in treated cells. The assay is classed as cell-based, human. The text has this:
However, IRP2 contributes very little—if at all—to the total IRP bound to the HIF2a IRE (Zimmer et al., 2008).

T1 sequence (P48200 whole entry): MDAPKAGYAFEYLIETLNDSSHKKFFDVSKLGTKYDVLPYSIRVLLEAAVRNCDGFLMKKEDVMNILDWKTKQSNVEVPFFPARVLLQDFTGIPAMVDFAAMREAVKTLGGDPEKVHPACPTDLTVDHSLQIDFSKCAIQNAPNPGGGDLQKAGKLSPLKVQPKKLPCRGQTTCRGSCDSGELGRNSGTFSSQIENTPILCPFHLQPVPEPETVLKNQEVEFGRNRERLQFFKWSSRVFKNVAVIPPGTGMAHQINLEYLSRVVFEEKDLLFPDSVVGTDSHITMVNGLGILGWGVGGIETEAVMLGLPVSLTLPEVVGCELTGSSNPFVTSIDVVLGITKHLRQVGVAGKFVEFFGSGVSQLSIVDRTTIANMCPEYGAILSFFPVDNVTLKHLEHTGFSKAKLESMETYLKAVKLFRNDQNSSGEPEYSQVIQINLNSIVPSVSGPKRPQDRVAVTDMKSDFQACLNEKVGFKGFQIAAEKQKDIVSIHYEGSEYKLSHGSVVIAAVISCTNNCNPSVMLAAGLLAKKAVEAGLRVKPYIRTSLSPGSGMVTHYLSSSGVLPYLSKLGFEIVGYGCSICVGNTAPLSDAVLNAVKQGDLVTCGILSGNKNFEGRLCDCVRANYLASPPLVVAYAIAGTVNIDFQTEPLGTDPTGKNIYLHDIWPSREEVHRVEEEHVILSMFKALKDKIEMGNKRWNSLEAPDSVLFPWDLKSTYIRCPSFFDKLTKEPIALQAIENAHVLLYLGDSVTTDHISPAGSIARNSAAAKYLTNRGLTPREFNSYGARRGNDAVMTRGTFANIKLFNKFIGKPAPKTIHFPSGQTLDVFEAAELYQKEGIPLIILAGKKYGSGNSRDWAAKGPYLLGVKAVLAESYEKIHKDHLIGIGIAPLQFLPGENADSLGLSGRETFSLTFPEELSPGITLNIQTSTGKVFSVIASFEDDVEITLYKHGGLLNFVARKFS

Consider `COC(=O)c1sccc1N/N=C(/C#N)S(C)(=O)=O` [Compound 76, methyl 3-{2-[cyano(methylsulfonyl)methylene] hydrazino}thiophene-2-carboxylate], for which the “binding of IRP2 to Ferritin-L IRE” value in assay [1] is listed as “slightly enhanced”.
As to `CCCCC/C=C/C=C1/C(=O)C=C[C@@H]1C/C=C\CCCC(=O)O` [PGJ2, 15-deoxy-Δ^12,14-prostaglandin J2], the SV40-driven luciferase activity result in assay [2] is given as “not affected”. Also, the “HIF2a protein expression in other VHL-deficient renal cell carcinoma lines” value with HIF-2a is “decreased HIF2a protein expression”. Also, in the assay on IRP2, the IRP2 expression result is “minimally increased”.
